In article PMC7059199, “Identification and structural insight of an effective PPARγ modulator with improved therapeutic index for anti-diabetic drug discovery” (Chemical Science, 2020):
Entries after “also recorded” stand apart in the source; their conditions may differ.

Biological target: hERG potassium ion channel (Homo sapiens, UniProt Q12809)
Assay: Inhibition assay on the hERG potassium ion channel

hERG potassium ion channel, sequence (Q12809 whole entry): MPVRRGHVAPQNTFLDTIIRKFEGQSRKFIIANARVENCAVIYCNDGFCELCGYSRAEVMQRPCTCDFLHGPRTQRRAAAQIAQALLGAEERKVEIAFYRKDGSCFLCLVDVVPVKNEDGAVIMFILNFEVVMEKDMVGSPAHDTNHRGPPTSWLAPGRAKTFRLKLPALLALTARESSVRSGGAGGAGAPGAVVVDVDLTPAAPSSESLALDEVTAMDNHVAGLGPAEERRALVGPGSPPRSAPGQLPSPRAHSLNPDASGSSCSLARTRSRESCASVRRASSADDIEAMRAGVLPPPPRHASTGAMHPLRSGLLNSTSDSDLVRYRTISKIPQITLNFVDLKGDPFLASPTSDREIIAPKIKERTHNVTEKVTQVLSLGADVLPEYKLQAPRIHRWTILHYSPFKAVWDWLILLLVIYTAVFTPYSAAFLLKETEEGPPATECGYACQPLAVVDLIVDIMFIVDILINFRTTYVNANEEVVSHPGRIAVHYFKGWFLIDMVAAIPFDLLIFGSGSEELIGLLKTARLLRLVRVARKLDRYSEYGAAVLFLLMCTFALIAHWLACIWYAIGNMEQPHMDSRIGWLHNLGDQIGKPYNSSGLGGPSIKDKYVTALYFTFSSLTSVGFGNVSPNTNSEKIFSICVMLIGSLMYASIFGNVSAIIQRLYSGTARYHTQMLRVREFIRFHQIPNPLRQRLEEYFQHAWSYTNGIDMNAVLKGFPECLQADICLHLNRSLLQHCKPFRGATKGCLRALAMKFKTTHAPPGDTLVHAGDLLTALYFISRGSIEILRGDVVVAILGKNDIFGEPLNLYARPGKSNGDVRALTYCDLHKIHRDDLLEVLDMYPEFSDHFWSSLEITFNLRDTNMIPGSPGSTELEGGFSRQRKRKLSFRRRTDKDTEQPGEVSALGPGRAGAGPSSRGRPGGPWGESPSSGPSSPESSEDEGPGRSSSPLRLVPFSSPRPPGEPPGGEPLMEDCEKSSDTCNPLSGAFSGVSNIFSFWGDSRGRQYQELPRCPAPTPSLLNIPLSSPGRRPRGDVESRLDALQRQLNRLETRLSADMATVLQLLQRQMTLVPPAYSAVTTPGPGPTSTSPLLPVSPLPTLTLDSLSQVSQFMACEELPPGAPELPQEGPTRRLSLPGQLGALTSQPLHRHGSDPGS

For `CCCCCCCC(OCC(=O)O)c1ccc(Cl)cc1` (centres unmarked) [VSP-77], the IC50 was over 50 µM and the “hERG inhibition (in words)” value (even at 50 μM) was “no obvious inhibition; also recorded: no detectable hERG inhibition”.
